Data: PMC9090415, “Discovery of small molecule inhibitors of Plasmodium falciparum apicoplast DNA polymerase” (Journal of Enzyme Inhibition and Medicinal Chemistry, 2022)

Biological target: T1, bacteriophage T4 DNA polymerase (Enterobacteria phage T4, UniProt P04415)
T1 construct: made in house
T1 sequence (P04415 1-898): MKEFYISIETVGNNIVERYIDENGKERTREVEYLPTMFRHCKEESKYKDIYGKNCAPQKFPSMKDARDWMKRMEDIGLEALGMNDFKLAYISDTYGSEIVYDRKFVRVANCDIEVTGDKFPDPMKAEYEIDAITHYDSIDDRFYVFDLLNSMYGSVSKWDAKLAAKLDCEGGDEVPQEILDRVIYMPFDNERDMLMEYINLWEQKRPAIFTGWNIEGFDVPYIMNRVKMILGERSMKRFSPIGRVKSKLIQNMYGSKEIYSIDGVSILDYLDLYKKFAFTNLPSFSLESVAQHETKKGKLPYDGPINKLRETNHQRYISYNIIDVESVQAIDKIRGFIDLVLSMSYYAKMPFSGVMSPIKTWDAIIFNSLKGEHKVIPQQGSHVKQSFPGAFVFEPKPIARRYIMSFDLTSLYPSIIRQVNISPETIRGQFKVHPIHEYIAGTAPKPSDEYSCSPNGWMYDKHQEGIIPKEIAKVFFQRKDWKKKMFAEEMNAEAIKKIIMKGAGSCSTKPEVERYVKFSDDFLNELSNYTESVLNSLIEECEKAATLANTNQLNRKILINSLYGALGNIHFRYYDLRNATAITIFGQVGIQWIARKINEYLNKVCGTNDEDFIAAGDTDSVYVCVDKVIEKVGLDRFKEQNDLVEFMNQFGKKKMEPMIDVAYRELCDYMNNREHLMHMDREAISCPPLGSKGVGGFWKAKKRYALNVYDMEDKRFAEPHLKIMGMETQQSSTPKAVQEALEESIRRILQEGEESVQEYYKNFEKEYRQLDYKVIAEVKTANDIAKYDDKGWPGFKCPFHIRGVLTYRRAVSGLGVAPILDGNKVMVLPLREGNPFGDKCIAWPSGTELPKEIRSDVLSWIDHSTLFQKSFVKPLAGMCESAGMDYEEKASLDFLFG
Experiment: Counter-screen against bacteriophage T4 DNA polymerase
Type: biochemical
Conditions: DRC-2
Method: Codon-optimized, exonuclease-deficient Pf-apPOL was overexpressed in E. coli BL21 (DE3) and purified as described. The protein was dialysed against two, 1-liter changes of 20 mM Tris-HCl (pH 8.0), 400 mM NaCl, and 20% glycerol. Plasmodium bergei and Babesia bovis apPOLs (Pb-apPOL and Bb-apPOL, respectively) were codon-optimized, expressed, and purified as for Pf-apPOL[15]. Bacteriophage T4 DNA polymerase was purified as described. The DNA oligonucleotides used to make the high-throughput substrate were obtained from Integrated DNA Technologies. Deoxynucleotides were purchased from Strategene. All other materials came from Fisher Scientific.
Each compound was tested in a dose-response format to determine IC50 values. […] T4 DNA polymerase can be produced in large quantities, and is in the same family (B-family) as the replicative human DNA polymerases (α, δ, and ε)[20].

Structure (SMILES) | % inhibition T4 10' (concentration 40) | % inhibition T4 40' (concentration 2.5) | % inhibition T4 40' (concentration 40) | % inhibition T4 40' (concentration 80) | % inhibition T4 90' (concentration 2.5) | % inhibition T4 90' (concentration 10) | % inhibition T4 180' (concentration 2.5) | % inhibition T4 180' (concentration 10) | % inhibition T4 180' (concentration 40) | % inhibition T4 10' (concentration 2.5) | % inhibition T4 10' (concentration 5) | % inhibition T4 40' (concentration 5) | % inhibition T4 40' (concentration 10) | % inhibition T4 40' (concentration 20) | % inhibition T4 90' (concentration 5) | other results
COc1cccc(C(=O)N2CCc3c(nc4cc(-c5ccccc5)[nH]n4c3=O)C2)c1OC [Molecule 22, COc1c(OC)cccc1C(=O)N1CCc2c(C1)nc1n(c2=O)[nH]c(c1)c1ccccc1] | -28% | -13% | -28% | -27% | -11% | -29% | -11% | -27% | -29% | – | – | – | – | – | – | % inhibition T4 10' (concentration 80): -28%; % inhibition T4 90' (concentration 40): -28%; % inhibition T4 180' (concentration 20): -29%
N#CC(=NNc1cc(C(F)(F)F)cc(C(F)(F)F)c1)C(=O)c1ccco1 [KU0264276] | 19% | 7% | 19% | 19% | – | – | – | – | 13% | 9% | 9% | 9% | 13% | 13% | 7% | % inhibition T4 10' (concentration 20): 13%; % inhibition T4 180' (concentration 80): 19%
CC(C)(C)OC(=O)COc1ccc2cc(-c3ccccc3)c(=O)oc2c1 [Molecule 81, O=C(OC(C)(C)C)COc1ccc2c(c1)oc(=O)c(c2)c1ccccc1] | 7% | 16% | – | 6% | 16% | 10% | 13% | 7% | – | – | – | 13% | 10% | 6% | 13% | % inhibition T4 10' (concentration 10): 13%; % inhibition T4 90' (concentration 20): 6%
O=C1c2ccccc2C(=O)N1Oc1ccc([N+](=O)[O-])c([N+](=O)[O-])c1 [Molecule 66, O=N(=O)c1cc(ccc1N(=O)=O)ON1C(=O)c2c(C1=O)cccc2] | – | -5% | – | – | – | – | – | – | – | -5% | -4% | – | – | – | -4% | –
